In US6544727B1, “Methods and devices for the removal of psoralens from blood products” (Cerus Corporation, priority 1995, dated 2003):
Entries after “also recorded” stand apart in the source; their conditions may differ. Where two headings read alike, the source gives them in different places.

Experiments:
[1] = system: Salmonella typhimurium tester strains; experiment: Ames Salmonella dark mutagenicity test, overall assessment; assay type: cell-based; settings: two-fold or greater increase in revertants above background and dose dependence
Description: A brief description for each procedure is given here. […] TA97a, TA98, TA1537 and TA1538 are frameshift tester strains. TA100 and TA102 are base-substitution tester strains.
This served as the background controls.
For all experiments, the pre-incubation procedure was used.

[2] = system: Salmonella tester strain TA100
Description: (§1) In this example the compounds of the present invention are tested for their dark mutagenicity using an Ames assay. The procedures used for the Salmonella mutagenicity test as described in detail by Maron and Ames were followed exactly. Maron, D. M. and B. N. Ames, Mutation Research 113: 173 ( 1983). A brief description for each procedure is given here. The tester strains TA97a, TA98, TA100, TA102, TA1537 and TA1538 were obtained from Dr. Ames. TA97a, TA98, TA1537 and TA1538 are frameshift tester strains. TA100 and TA102 are base-substitution tester strains. Upon receipt each strain was cultured under a variety of conditions to confirm the genotypes specific to the strains.
(§2) The first tests done with the strains were to determine the range of spontaneous reversion for each of the strains. With each mutagenicity experiment the spontaneous reversion of the tester strains to histidine independence was measured and expressed as the number of spontaneous revertants per plate. This served as the background controls.
(§3) For all experiments, the pre-incubation procedure was used. In this procedure one vial of each tester strain was thawed and 20 μL of this culture was added to 6 mL of Oxoid Nutrient Broth #2. This solution was allowed to shake for 10 hours at 37° C. In the pre-incubation procedure, 0.1 mL of this overnight culture was added to each of the required number of sterile test tubes. To half of the tubes 0.5 mL of a 10% S-9 solution containing Aroclor 1254 induced rat liver extract (Molecular Toxicology Inc., Annapolis, Md.), and MgCl2, KCl, glucose-6-phosphate, NADP, and sodium phosphate buffer (Sigma, St. Louis, Mo.) were added. To the other half of the tubes 0.5 mL of 0.2M sodium phospate buffer, pH 7.4, was used in place of the S-9 mixture (the—S9samples). Finally 0.1 mL of the test solution containing either 0, 0.1, 0.5, 1, 5, 10, 50, 100, 250, or 500 μg/mL of the test compound was added. The 0.7 mL mixture was vortexed and then pre-incubated while shaking for 20 minutes at 37° C. After shaking, 2 mL of molten top agar supplemented with histidine and biotin were added to the 0.7 mL mixture and immediately poured onto a minimal glucose agar plate (volume of base agar was 20 mL). The top agar was allowed 30 minutes to solidify and then the plates were inverted and incubated for 44 hours at 37° C. After incubation the number of revertant colonies on each plate were counted. […] (“n” represents the number of replicates performed for each data point.)

[3] = system: Salmonella tester strain TA1538
Description: as §1, §2, §3

R17 bacteriophage [4] = experiment: R17 bacteriophage inactivation assay, varying compound concentration; assay type: cell-based
Description: An r-17 bacteriophage assay was used in this example to predict pathogen inactivation efficiency and to determine nucleic acid binding of the photoreactive binding compounds of the present invention. In the r-17 assay, the bacteriophage was placed in a solution with each compound tested and was then irradiated. The ability of the phage to subsequently infect bacteria and inhibit their growth was measured. The bacteriophage was selected for its relatively accessible nucleic acid such that the culture growth inhibition would accurately reflect nucleic acid damage by the test compounds. The bacteriophage assay for nucleic acid binding to test compounds offers a safe and inexpensive procedure to identify compounds likely to display efficient pathogen inactivation.
The R17 was grown up in Hfr 3000 bacteria, approximate titer 5×10^11. (R17 and Hfr 3000 were obtained from American Tissue Culture Collection (ATCC), Washington, D.C.) The R17 phage stock was added to a solution of 15% fetal bovine serum in Dulbecco's Modified Eagles Medium (DMEM) to a final phage concentration of 10^9/mL. An aliquot (0.5 mL) was transferred to a 1.5 mL snap-top polyethylene tube. An aliquot (0.004-0.040 mL) of the test compound stock solution prepared in water, ethanol or dimethylsulfoxide at 0.80-8.0 mM was added to the tube. Compounds were tested at concentrations between 4 μM and 320 μM. […] The tubes were placed in a light device as described in EXAMPLE 1 and irradiated for between 1 and 10 minutes. Sterile 13 mL dilution tubes were prepared; each test compound required one tube with 0.4 mL of Luria broth (LB) and five tubes containing 0.5 mL of LB broth. To make the dilutions, a 0.100 mL aliquot of the irradiated solution of phage and test compound was added to the first dilution tube of 0.4 mL of media then 0.020 mL of this solution was added to the second tube of 0.5 mL medium (1:25). The second solution was then diluted serially (1:25) into the remaining tubes. To each diluted sample was added 0.050 mL of Hfr 3000 bacteria cultured overnight and 3 mL of molten LB top agar and the mixed materials were poured onto LB broth plates. After the top agar hardened, the plates were incubated at 37° C. overnight. The plaque forming units were then counted the following morning and the titer of the phage remaining after phototreatment was calculated based on the dilution factors.
The following controls were run: the “phage only” in which phage was not treated with test compound and not irradiated (listed as “starting titer” in the tables below); the “UV only” in which the phage was irradiated in the absence of test compound; and the “dark” control in which the phage/test compound solution was not irradiated before it was diluted and plated.

HIV-1 = settings: 1 minute irradiation
Description: As in the R17 assay, small aliquots of the compounds listed in TABLES 10 and 11, below, at the concentrations listed in the table, were added to stock HIV-1 to a total of 0.5 mL. The stock HIV (10^5−10^7 plaque forming units/mL) was in DMEM15% FBS. […] Controls included HIV-1 stock only, HIV-1 plus UVA only, and HIV-1 plus the highest concentration of each psoralen tested, with no UVA. Post irradiation, all samples were store frozen at −70° C. until assayed for infectivity by a microtiter plaque assay. Aliquots for measurement of residual HIV infectivity in the samples treated with a compound of the present invention were withdrawn and cultured.
Residual HIV infectivity was assayed using an MT-2 infectivity assay. […] The assay medium was 85% DMEM (with a high glucose concentration) containing 100 μg of streptomycin, 100 U of penicillin, 50 μg of gentamicin, and 1 μg of amphotericin B per mL, 15% FBS and 2 μg of Polybrene (Sigma Chemical Co., St. Louis, Mo.) per mL. Test and control samples from the inactivation procedure were diluted in 50% assay medium and 50% normal human pooled plasma The samples were serially diluted directly in 96-well plates (Corning Glass Works, Corning, N.Y.). The plates were mixed on an oscillatory shaker for 30 seconds and incubated at 37° C. in a 5% CO2 atmosphere for 1 to 18 hours. […] After an additional 1 hour of incubation at 37° C. in 5% CO2, 0.075 mL of assay medium containing 1.6% SeaPlaque agarose (FMC Bioproducts, Rockland, Me.) and prewarmed to 38.5° C. was added to each well. The plates were kept at 37° C. for a few minutes until several plates had accumulated and then centrifuged in plate carriers at 600×g for 20 minutes in a centrifuge precooled to 10° C. In the centrifuge, cell monolayers formed prior to gelling of the agarose layer. The plates were incubated for 5 days at 37° C. in 5% CO2 and stained by the addition of 0.05 mL of 50 μg/mL propidium iodide (Sigma Chemical Co.) in phosphate-buffered saline (pH 7.4) to each well. After 24 to 48 hours, the red fluorescence-stained microplaques were visualized by placing the plates on an 8,000 μW/cm^2304 nm UV light box (Fotodyne, Inc., New Berlin, Wis.). The plaques were counted at a magnification of x20 to x25 through a stereomicroscope.

R17 bacteriophage [5] = experiment: R17 bacteriophage inactivation at constant concentration, varying doses of UV light; assay type: cell-based; settings: 1.0-3.0 J/cm^2, FIGS. 11-17
Description: Compounds of the present invention were also tested at a constant concentration for varying doses of UV light. Three sets of 1.5 mL tubes were prepared containing 0.6mL aliquots of R17 in DMEM (prepared as described above). The compound tested was added at the desired concentration and the samples were vortexed. The samples were then irradiated at intervals of 1.0 J/cm^2, until 3.0 J/cm^2 was reached. Between each 1.0 J/cm^2 interval, 100 μL was removed from each sample and placed in the first corresponding dilution tube, then five sequential dilutions were performed for each compound tested, at all 3 irradiation doses, as described above in this example.
Then 50 μL of Hfr 3000 bacteria was added to each tube, 3 mL of top agar was added and the tube contents were vortexed The contents of each tube was poured into its own LB plate and the plates were incubated overnight at 37° C. Plaques were counted by visual inspection the following morning.

[6] = 64 μM, starting titer approximately 5 logs (Table 10)
[7] = Experiment 1, 32 μM compound, 1′ uva
[8] = Experiment 1, 32 μM compound, 10′ uva
[9] = Experiment 1, compound only (32 μM), no uva
[10] = Experiment 2, 3.2 μM compound, 1′ uva
[11] = Experiment 2, 3.2 μM compound, 10′ uva
[12] = Experiment 2, compound only (3.2 μM), no uva
[13] = Experiment 3, 4 μM compound, 1′ uva
[14] = Experiment 3, 8 μM compound, 1′ uva
[15] = Experiment 3, 16 μM compound, 1′ uva
[16] = Experiment 3, compound only (16 μM), no uva
[17] = 16 μM, starting titer approximately 5.4 logs (Table 11)
[18] = 32 μM, starting titer approximately 5.4 logs (Table 11)
[19] = 64 μM, starting titer approximately 5.4 logs (Table 11)

Cc1oc2c(C)c3oc(=O)cc(C)c3cc2c1COCCCN [Compound 4, 4′-(5-amino-2-oxa)pentyl-4,5′,8-trimethylpsoralen]
mutagenic response in the Ames assay (in words) [1]: no mutagenicity
revertant colonies per plate ([2]; TA100 + S9, 5 μg/plate): −10
revertant colonies per plate ([2]; TA100 + S9, 10 μg/plate): −3
revertant colonies per plate ([2]; TA100 − S9, 5 μg/plate): −41
revertant colonies per plate ([2]; TA100 − S9, 10 μg/plate): 3
revertant colonies per plate ([3]; TA1538 + S9, 5 μg/plate): 7
revertant colonies per plate ([3]; TA1538 + S9, 10 μg/plate): −2
revertant colonies per plate ([3]; TA1538 − S9, 5 μg/plate): −2
revertant colonies per plate ([3]; TA1538 − S9, 10 μg/plate): −2
R17 Log Kill (R17 bacteriophage [4]; 16 μM, starting titer approx. 7.1 logs, 1 minute irradiation = 1.2 J/cm^2 (Table 8)): 2.3 log
R17 Log Kill (R17 bacteriophage [4]; 32 μM, starting titer approx. 7.1 logs, 1 minute irradiation = 1.2 J/cm^2 (Table 8)): 4.3 log
R17 Log Kill (R17 bacteriophage [4]; 64 μM, starting titer approx. 7.1 logs, 1 minute irradiation = 1.2 J/cm^2 (Table 8)): >6.1 log
HIV Log Kill (HIV-1; 32 μM, starting titer approximately 5 logs (Table 10)): 2.2 log
HIV Log Kill (HIV-1; [6]): >3.6 log

Cc1oc2c(C)c3oc(=O)cc(C)c3cc2c1CNCCCNCCCCNCCCN [Compound 15, 4′-(14-amino-2,6,11-triaza)tetradecyl-4,5′,8-trimethylpsoralen]
R17 inactivation efficiency compared with AMT (in words) (R17 bacteriophage [5]): more efficient at inactivating R17 than was AMT

Cc1oc2c(C)c3oc(=O)cc(C)c3cc2c1CNCCN [Compound 1, 4′-(4-amino-2-aza)butyl-4,5′,8-trimethylpsoralen]
mutagenic response in the Ames assay (in words) [1]: weak frameshift mutagen in TA1538 at 5 μg/plate in the presence of S9; also recorded: displayed mutation in the TA100 strain, but only in the absence of S9
revertant colonies per plate ([2]; TA100 + S9, 5 μg/plate): −24
revertant colonies per plate ([2]; TA100 + S9, 10 μg/plate): −22
revertant colonies per plate ([2]; TA100 − S9, 5 μg/plate): 292
revertant colonies per plate ([2]; TA100 − S9, 10 μg/plate): 337
revertant colonies per plate ([3]; TA1538 + S9, 5 μg/plate): 21
revertant colonies per plate ([3]; TA1538 + S9, 10 μg/plate): 22
revertant colonies per plate ([3]; TA1538 − S9, 5 μg/plate): 10
revertant colonies per plate ([3]; TA1538 − S9, 10 μg/plate): 12
R17 Log Kill (R17 bacteriophage [4]; 8 μM, starting titer approx. 7.2 logs, 1 minute irradiation (Table 7)): 1.7 log
R17 Log Kill (R17 bacteriophage [4]; 16 μM, starting titer approx. 7.2 logs, 1 minute irradiation (Table 7)): 2.8 log
R17 Log Kill (R17 bacteriophage [4]; 32 μM, starting titer approx. 7.2 logs, 1 minute irradiation (Table 7)): 5.3 log
R17 log kill (32 μM) (R17 bacteriophage [4]; 32 μM, starting titer approx. 7.5 logs, 1 minute irradiation): >6.6 log
Log Titer (R17 bacteriophage [4]; [7]): <1
Logs Killed (R17 bacteriophage [4]; [7]): >6.7 logs
Log Titer (R17 bacteriophage [4]; [8]): <1
Logs Killed (R17 bacteriophage [4]; [8]): >6.7 logs
Log Titer (R17 bacteriophage [4]; [9]): 7.6
Logs Killed (R17 bacteriophage [4]; [9]): 0.1 logs
Log Titer (R17 bacteriophage [4]; [10]): 6.9
Logs Killed (R17 bacteriophage [4]; [10]): 0.9 logs
Log Titer (R17 bacteriophage [4]; [11]): 6.1
Logs Killed (R17 bacteriophage [4]; [11]): 1.7 logs
Log Titer (R17 bacteriophage [4]; [12]): 7.7
Logs Killed (R17 bacteriophage [4]; [12]): 0.1 logs
Log Titer (R17 bacteriophage [4]; [13]): 6.3
Logs Killed (R17 bacteriophage [4]; [13]): 1.0 logs
Log Titer (R17 bacteriophage [4]; [14]): 5.6
Logs Killed (R17 bacteriophage [4]; [14]): 1.7 logs
Log Titer (R17 bacteriophage [4]; [15]): 3.9
Logs Killed (R17 bacteriophage [4]; [15]): 3.4 logs
Log Titer (R17 bacteriophage [4]; [16]): 7.3
Logs Killed (R17 bacteriophage [4]; [16]): 0 logs
R17 inactivation efficiency compared with AMT or 8-MOP (in words) (R17 bacteriophage [4]; varying concentration, Tables 6-9, FIGS. 6-10): much higher R17 inactivation efficiency than does 8-MOP
HIV Log Kill (HIV-1; [6]): 2.1 log

Cc1oc2c(C)c3oc(=O)cc(C)c3cc2c1CNCCCNCCCN [Compound 12, 4′-(9-amino-2,6-diaza)nonyl-4,5′,8-trimethylpsoralen]
HIV Log Kill (HIV-1; [17]): 0.4 log
HIV Log Kill (HIV-1; [18]): 0.8 log
HIV Log Kill (HIV-1; [19]): 1.3 log
R17 inactivation efficiency compared with AMT (in words) (R17 bacteriophage [5]): more efficient at inactivating R17 than was AMT

Cc1oc2c(C)c3oc(=O)cc(C)c3cc2c1CNCCCCCN [Compound 10, 4′-(7-amino-2-aza)heptyl-4,5′,8-trimethylpsoralen]
HIV Log Kill (HIV-1; [17]): 2.0 log
HIV Log Kill (HIV-1; [18]): >3.5 log
HIV Log Kill (HIV-1; [19]): >3.5 log
R17 inactivation efficiency compared with AMT (in words) (R17 bacteriophage [5]): more efficient at inactivating R17 than was AMT
